Results reported in US20130273182A1, “A Herbal Extract for Treating Fatty Liver Disease and a Medication Thereof” (priority 2012, published 2013).

Assay: DPPH free radical elimination test
Format: biochemical
Conditions: 10 mg/ml sample, 0.1 mM DPPH, room temperature 30 minutes, OD 517 nm
Description: Trial (A): DPPH Free Radical Elimination Test Referring to TABLE 1, there are six groups (A0) to (A5) to test, wherein the group (A0) comprising 10 mg/ml of ascorbic acid, and other five groups comprising extract of a dry Andrographis paniculata sample, a dry Acanthopanax senticosus sample or a combination of dry Andrographis paniculata sample and dry Acanthopanax senticosus sample in various weight ratios respectively. The group (A1) is a liquid extract obtained by extracting 4 kg of dry Andrographis paniculata sample with 1 liter of 95% ethanol. The group (A2) is a liquid extract obtained by extracting 4 kg of dry Acanthopanax senticosus sample with 1 liter of 95% ethanol. The group (A3) is a liquid extract obtained by extracting 4 kg of dry Andrographis paniculata sample and dry Acanthopanax senticosus sample in a weight ratio of 1:1 with 1 liter of 95% ethanol. The group (A4) is a liquid extract obtained by extracting 4 kg of dry Andrographis paniculata and dry Acanthopanax senticosus in a weight ratio of 1:2 with 1 liter of 95% ethanol. The group (A5) is a liquid extract obtained by extracting 4 kg of dry Andrographis paniculata and dry Acanthopanax senticosus in a weight ratio of 1:3 with 1 liter of 95% ethanol. […] The 6 samples are analyzed in the DPPH free radical elimination ability. […] DPPH elimination rates of each sample are further calculated by using Formula I. [formula]

## O=C1O[C@H]([C@@H](O)CO)C(O)=C1O [ascorbic acid]
  Percentage of DPPH elimination (%): 96.4 ± 2.7%
